Assay results from publication PMC11750672, “The in vivo metabolic pathway of Deg-AZM and in vitro investigations into the contribution of drug metabolizing enzymes and drug transporters in the drug interactions of Deg-AZM, a clinical-stage new transgelin agonist” (Frontiers in Pharmacology, 2025).

How the values were obtained:
[1] = Exposure profiles of Deg-AZM and metabolites in rat plasma, urine, feces and bile (UPLC-QTOF-MS); assay type: in vivo, rats; details: / = not detected; for Proportion in total related substances, Feces: rat feces 0-24 h; for Proportion in total related substances, Plasma: rat plasma 0.167-8 h after oral Deg-AZM, by AUC0-t of chromatographic peak area; for Proportion in total related substances, Urine: rat urine 0-24 h
Description: (§1) The plasma samples at 0.167 h, 0.5 h, 3 h and 8 h after administration were obtained from the study of tissue distribution in rats ([Gu et al., 2024]). Urine, feces and bile samples at 0–24 h after administration were obtained from the excretion study of a single gavage administration of 25 mg/kg Deg-AZM in rats ([Gu et al., 2024]).
Plasma samples were precipitated with methanol at a ratio of 1:3. Urine samples were diluted with 50% methanol at a ratio of 1:80. The feces was thoroughly ground and sonicated with a 50% methanol at a ratio of 1 g/10 mL to obtain the homogenate, then the homogenate were precipitated with methanol at a ratio of 1:1. Bile samples were precipitated with 50% methanol at a ratio of 1:1. The above obtained samples were vortexed for 1 min and centrifugated at 4°C, 12,000 rpm for 10 min. Finally, the upper layer was analyzed using the UPLC-QTOF-MS system.
The metabolites of Deg-AZM in the plasma, urine, feces and bile samples were identified by UPLC-QTOF-MS system. Liquid chromatography was performed on an ACQUITY UPLC^TM I-Class UPLC unit with a Waters ACQUITY UPLC HSS T3 (100 × 2.1 mm, 1.8 µm). A gradient program was employed with the mobile phase combining solvent A (0.02% formic acid in 5% acetonitrile) and solvent B (acetonitrile) as follows: 100% A (0–0.5 min), 100%–85% A (0.5–7 min), 85%–5% A (7–9 min), 5% A (9–12 min), 5%–100% A (12–15 min). The flow rate was 0.40 mL/min. The column temperature was maintained at 40°C.
A Waters Q-TOF Xevo G2-XS Spectrometer equipped with ESI source under positive ion mode was utilized to conduct mass spectrometry detection, for which the MS^E mode was set at the mass range of 100–1,000 Da. The cone voltage was 40 V. The desolvation temperature was set at 500°C and source temperature was 100°C. The desolvation gas flow rate was 800 L/h and the cone gas flow rate was 50 L/h. In MS^E centroid mode, the MS data were acquired with the low energy function in the trap collision energy (6 eV), and the tandem mass data were acquired with the high energy function in the ramp trap collision energy (35–45 eV).
The extraction ion chromatogram of plasma samples at 0.167 h, 0.5 h, 3 h and 8 h after administration of Deg-AZM in rats was shown in Figure 2. The extraction ion chromatogram of urine, feces and bile samples collected from 0 to 24 h after oral administration of Deg-AZM in rats was shown in Figure 3. The AUC0-t of Deg-AZM and its metabolites in plasma sample were calculated by trapezoidal rule based on the chromatographic peak area. 21 metabolites were found in rat plasma, with M0 (Deg-AZM) and metabolite M2 (demethylated) being the main exposure forms in rat plasma. M0 and M2 accounted for 61.6% and 23.0% of the total related substances in rat plasma, respectively. The relative proportions of Deg-AZM and its metabolites in urine, feces and bile samples were evaluated by the chromatographic peak area, as shown in Figure 4. The detailed proportion of Deg-AZM and its metabolites could be found in Supplementary Table S1. M0 and 28 metabolites were found in the urine of rats. […] M0 and 42 metabolites were found in the feces of rats. Metabolite M1-2 (monohydroxylation, 18.1%) and metabolite M2 (16.6%) were the main forms of fecal excretion of Deg-AZM in rats after oral administration. M0 and 38 metabolites were found in the bile samples of rats. Metabolite M1-2 (monohydroxylation, 19.2%) and metabolite M2 (16.5%) were the main forms of biliary excretion of Deg-AZM in rats after oral administration.

[2] = Excretion and material balance in rats (urine, feces 0-24 h); assay type: in vivo; details: through the kidneys and urine
Description: as §1
The types and proportions of metabolites in the excretion pathway were elucidated in this study. […] Based on the peak area in this study, the total amount of metabolites in urine and feces of rats was 0.589 times and 9.96 times that of the original form of Deg-AZM, respectively. The total amount of Deg-AZM excreted in its original form and various metabolites in urine and feces was 23.7% and 19.8% of the administered dose, respectively, with a material balance coefficient of 43.5%. Deg-AZM was mainly excreted in the form of its original form M0 (cumulative excretion fraction of 14.9%) and metabolite M2 (cumulative excretion fraction of 5.33%) through the kidneys and urine, and in the form of metabolite M1-2 (cumulative excretion fraction of 4.29%) and M2 (cumulative excretion fraction of 3.93%) through the intestines and feces. […] It is necessary to obtain standard samples of the main metabolites for accurate quantification or use isotope tracing techniques to further improve material balance research in the clinical stage.

CYP1A2 = assay: CYP induction (mRNA, qPCR) in human hepatocytes; assay type: in vitro ADME; details: positive control 50 μM
Excerpt: (§2) After culture and complete induction, total mRNA was extracted by TRNzol RNA Extraction Kit (purchased from Tiangen Biochemical Technology Co., Ltd., Beijing). The RNA was reverse transcribed into cDNA according to the instructions of the Transcriptor First Strand cDNA Synthesis Kit (purchased from Roche, Switzerland). Using reverse transcribed cDNA as a template, amplifying the internal reference genes of β-Actin of the sample and target genes of CYP1A2, CYP2B6, and CYP3A4 respectively to compare the expression differences.

CYP2B6 = assay: CYP induction (mRNA, qPCR) in human hepatocytes; details: positive control 1 mM
Excerpt: as §2

P-gp = tested on: T1, P-gp; assay: Bidirectional transport in Caco-2 cell monolayer with P-gp inhibitor quinidine; assay type: in vitro ADME, human; details: human, Caco-2, with quinidine 50 μM; efflux positive control, (+) quinidine; n = 3
T1 construct: evaluated using Caco-2 cell monolayer both apical-to-basolateral (A-B) and basolateral-to-apical (B-A) directions; endogenous in cells; host or cells: Caco-2
Description: (§3) The human colon adenocarcinoma Caco-2 cell line was provided by Institute of Basic Medicine, Chinese Academy of Medical Sciences (Beijing, China). Caco-2 cells were cultured in a high sugar DMEM medium containing 10% (v/v) fetal bovine serum at 37°C and 5% CO2 incubator. Caco-2 cells (2.5 ×10^5/mL) was inoculated into Transwell polycarbonate membrane 12 well plate. The culture medium was changed every 2 days for the first 14 days, and then every day. After 21 consecutive days, fully differentiated cell monolayers were obtained for drug transport assays.
(§4) Transepithelial electrical resistance (TEER) was used to indicate monolayer integrity. The electrode of the Millcell ERS-2 voltammeter was placed in HBSS solution for 20 min to pre-balance. At the same time, the culture medium was removed from the Transwell culture plate, 0.5 mL of pre-heated HBSS solution was added into the Apical (AP) of transwell, 1.5 mL of pre-heated HBSS solution was added into the Basolateral (BL) of transwell. After that, the transwell was balanced at 37°C for 20 min and then replaced the HBSS solution with the pre-heated HBSS solution, the TEER value was measured finally. Caco-2 cell monolayers with TEER >350 Ω cm^2 which means that the cells have formed a tight monolayer, were used for the experiment. The TEER value was calculated according to the following formula: TEER=TEERT ‐ TEERc×A where TEERT represented the TEER value (Ω) of the measured Transwell chamber with Caco-2 cells, TEERC was the TEER value (Ω) of the transwell chamber in the control group, and A was the membrane area of the transwell cavity (1.12 cm^2 in this experiment).
(§5) In order to evaluate the usability of the Transwell model research, [^3H] Propranolol (0.5 μCi/mL) and [^14C] PEG4000 (1 μCi/mL) served as high-permeability and impermeability controls to verify the uptake direction on Caco-2 cell monolayer, respectively. Rhodamine 123 was used as a positive control for efflux mechanism in bidirectional transport assay on Caco-2 cell monolayer.
(§6) The transmembrane permeability of Deg-AZM (2, 10 or 50 µM) and the potential to inhibit P-gp by Deg-AZM (2, 10 or 50 µM) were evaluated using Caco-2 cell monolayer both apical-to-basolateral (A-B) and basolateral-to-apical (B-A) directions at 37°C for 1 h, the experiments were conducted using quinidine (50 μM) as the inhibitor for P-gp. At the end of incubation, receiver and donor samples were both diluted by assay buffer and analyzed by LC-MS/MS.

[3] = Bidirectional transport in Caco-2 cell monolayer; assay type: in vitro ADME, human; details: human, Caco-2, efflux positive control, (−) without quinidine
Description: as §3, §4, §5, §6

Caco-2 cell monolayer = assay: Bidirectional transport in Caco-2 cell monolayer; assay type: in vitro ADME, human; details: 0.5 μCi/mL, high-permeability control; n = 3
Description: as §3, §4, §5, §6

[4] = single gavage 25 mg/kg Deg-AZM, by peak area
[5] = single gavage 25 mg/kg Deg-AZM, by peak area, 25 mg/kg

SMILES: CCC1OC(=O)C(C)C(O)C(C)C(O)C(C)(O)CC(C)CNC(C)C(O)C1(C)O (centres unmarked) [M2]
- Proportion in total related substances, Bile ([1]; rat bile 0-24 h, single gavage 25 mg/kg Deg-AZM, by peak area): 16.5%
- Proportion in total related substances, Feces [1, 4]: 16.6%
- Proportion in total related substances, Plasma [1]: 23.0%
- Proportion in total related substances, Urine [1, 4]: 22.5%
- Cumulative excretion fraction, urine [2]: 5.33%

SMILES: CCC(O)C(C)(O)C(O)C(C)N(C)CC(C)CC(C)(O)C(O)C(C)C(O)C(C)C(=O)O (centres unmarked) [M11]
- Proportion in total related substances, Feces [1, 5]: 1.24%
- Proportion in total related substances, Plasma [1]: 2.04%
- Proportion in total related substances, Urine [1, 5]: 0.224%

SMILES: COc1ccc2[nH]c([S+]([O-])Cc3ncc(C)c(OC)c3C)nc2c1 (centres unmarked) [Omeprazole, reference compound]
- CYP1A2 mRNA induction, times of control group (CYP1A2; hepatocyte batch HUB): 48.2
- CYP1A2 mRNA induction, times of control group (CYP1A2; hepatocyte batch LHuf 17905B): 56.0
- CYP1A2 mRNA induction, times of control group (CYP1A2; hepatocyte batch MWB): 64.6

SMILES: CCC1(c2ccccc2)C(=O)NC(=O)NC1=O [Phenobarbital, reference compound]
- CYP2B6 mRNA induction, times of control group (CYP2B6; hepatocyte batch HUB): 13.5
- CYP2B6 mRNA induction, times of control group (CYP2B6; hepatocyte batch LHuf 17905B): 10.3
- CYP2B6 mRNA induction, times of control group (CYP2B6; hepatocyte batch MWB): 14.7

SMILES: COC(=O)c1ccccc1-c1c2ccc(=N)cc-2oc2cc(N)ccc12 [Rhodamine 123, reference compound]
- Papp A→B (P-gp): 0.00478 ± 0.000709 ×10⁻⁶ cm/s
- Papp B→A (P-gp): 0.0417 ± 0.0152 ×10⁻⁶ cm/s
- Papp A→B ([3]; n = 3): 0.0031 ± 0.00141 ×10⁻⁶ cm/s
- Papp B→A ([3]; n = 3): 0.166 ± 0.0287 ×10⁻⁶ cm/s
- efflux ratio ([3]; read-out: ER): 53.5

SMILES: CC(C)NCC(O)COc1cccc2ccccc12 (centres unmarked) [[^3H] Propranolol, reference compound]
- P app AP→BL (Caco-2 cell monolayer): 9.64 ± 1.05 ×10^–6 cm/s
